In one assay the target is BACE1 (Homo sapiens, UniProt P56817). Kind of assay: In vitro enzymatic BACE FRET assay. The format is biochemical. Conditions: beta secretase enzyme 0.2 nM, FRET substrate 50 nM, pH 4.2. Summed up: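 Enzyme activity was measured as release of quenching from a 50 nM fluorophore/quencher peptide spanning the cleavage site, over 1 h. This followed 1 h pre-incubation of 0.2 nM enzyme with compound dilutions at pH 4.2 (acetate, 10% DMSO, genapol). Tris addition ended the reaction before fluorescence was measured.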

Assay [1] deals with Aβ40 in conditioned medium of cells stably expressing Amyloid Precursor Protein (APP). The experiment in a line: In vitro BACE cell-based assay (HEK cell assay), Aβ40 sandwich ELISA. Conditions: inhibition of Aβ40, 24 h incubation, read-out: HEK cell assay (IC50 class). An outline of the steps:
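Aβ40 in conditioned medium measured after 24 h compound exposure (10-point series, 100 μM or 10 μM start, 0.1% DMSO) of cells stably expressing APP, seeded 40K/well. Detection: pAb40/6E10-biotin sandwich ELISA at 4°C with time-resolved europium read-out; IC50 derived from percent of control.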
In general terms: In an ELISA, binding on a coated surface is turned into a signal by an enzyme label.

[2] abbreviates: read-out: BACE1 FRET assay (IC50 class).

This passage reports IC50 results from patent US8735384B2, “Amino heteroaryl compounds as beta-secretase modulators and methods of use” (Amgen Inc., priority 2010, dated 2014).

pIC50: −log10 of the molar value. Like-named read-outs stand apart in the source and are kept apart here. Some results are limits rather than exact numbers.

BACE1, sequence (P56817 46-501, species assumed): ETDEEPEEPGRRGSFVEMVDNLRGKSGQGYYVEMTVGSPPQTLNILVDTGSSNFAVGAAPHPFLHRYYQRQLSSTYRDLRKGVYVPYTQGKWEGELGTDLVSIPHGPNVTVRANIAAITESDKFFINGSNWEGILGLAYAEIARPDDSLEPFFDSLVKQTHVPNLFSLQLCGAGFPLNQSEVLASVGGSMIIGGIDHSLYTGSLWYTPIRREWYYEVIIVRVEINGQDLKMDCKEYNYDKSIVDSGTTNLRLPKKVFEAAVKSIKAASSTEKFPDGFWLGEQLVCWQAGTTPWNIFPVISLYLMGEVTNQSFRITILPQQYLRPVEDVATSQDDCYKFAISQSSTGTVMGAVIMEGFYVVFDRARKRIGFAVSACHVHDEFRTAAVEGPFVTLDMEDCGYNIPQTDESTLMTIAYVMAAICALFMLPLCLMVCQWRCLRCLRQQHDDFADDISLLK

Broadly, the pIC50 is the negative decadic logarithm of the IC50, by convention in mol/L. In the case of `CCC1CCCCN1C(=O)c1cccc(C)c1-c1ccc2nc(N)c(N3CCOCC3)cc2c1` (centres unmarked) [Example 81, (2-(2-amino-3-morpholinoquinolin-6-yl)-3-methylphenyl)(2-ethylpiperidin-1-yl)methanone], the negative-log IC50 (pIC50) was > 7.00 on BACE1 (setting [2]) and 5.30 to 6.00 in assay [1] (Homo sapiens, HEK293, 24 h).

As for `Nc1nc2ccc(-c3c(Cl)cccc3C(=O)N3CCOCC3)cc2cc1N1CCOCC1` [Example 144, (2-(2-amino-3-morpholinoquinolin-6-yl)-3-chlorophenyl)(morpholino)methanone], the pIC50 was 6.30 to 7.00 on BACE1 (setting [2]) and 5.30 to 6.00 in assay [1] (Homo sapiens, HEK293, 24 h).

Consider `Cc1cccc(C(O)c2ccccc2)c1-c1ccc2nc(N)c(N3CCOCC3)cc2c1` (centres unmarked) [Example 199, (2-(2-amino-3-morpholinoquinolin-6-yl)-3-methylphenyl)(phenyl)methanol], for which the pIC50 was > 7.00 on BACE1 (setting [2]) and 6.30 to 7.00 in assay [1] (Homo sapiens, HEK293, 24 h).

Take `Nc1nc2cc(F)c(-c3ccccc3C(=O)N3CCCC3)cc2cc1N1CCOCC1` [Example 140, (2-(2-amino-7-fluoro-3-morpholinoquinolin-6-yl)phenyl)(pyrrolidin-1-yl)methanone]: the negative-log IC50 (pIC50) is 6.30 to 7.00 on BACE1 (setting [2]) and 5.30 to 6.00 in assay [1] (Homo sapiens, HEK293, 24 h).

For the molecule `Cc1cccc(C(=O)N(C)[C@H](C)c2ccccc2)c1-c1ccc2nc(N)c(N3CCOCC3)cc2c1` [Example 133, (R)-2-(2-amino-3-morpholinoquinolin-6-yl)-N,3-dimethyl-N-(1-phenylethyl)benzamide], the negative logarithm of the IC50 (pIC50) at BACE1 (setting [2]) was > 7.00; in assay [1] (Homo sapiens, HEK293, 24 h) it was 5.30 to 6.00.

Consider `Cc1cccc(C(=NO)c2ccccc2)c1-c1ccc2nc(N)c(N3CCOCC3)cc2c1` (stereo in doubt) [Example 16, (Z)-(2-(2-amino-3-morpholinoquinolin-6-yl)-3-methylphenyl)(phenyl)methanone oxime], for which the figures for the negative-log IC50 (pIC50) (on BACE1 (setting [2]); in assay [1]) were > 7.00 and 6.00 to 6.30, respectively.

`Cc1cccc(C(=O)N2CCCC(F)(F)C2)c1-c1ccc2nc(N)c(N3CCOCC3)cc2c1` [Example 97, (2-(2-amino-3-morpholinoquinolin-6-yl)-3-methylphenyl)(3,3-difluoropiperidin-1-yl)methanone]: the negative logarithm of the IC50 (pIC50) on BACE1 (setting [2]) was > 7.00; in assay [1] (Homo sapiens, HEK293, 24 h), 6.00 to 6.30.

Regarding `CO/N=C(/c1ccccc1)c1cccc(C)c1-c1ccc2nc(N)c(N3CCOCC3)cc2c1` [Example 191, (Z)-(2-(2-amino-3-morpholinoquinolin-6-yl)-3-methylphenyl)(phenyl)methanone O-methyl oxime], the pIC50 at BACE1 (setting [2]) is > 7.00; in assay [1] (Homo sapiens, HEK293, 24 h), 5.30 to 6.00.

On to `Nc1nc2ccc(-c3ccccc3C(=O)C3CCOCC3)cc2cc1N1CCOCC1` [Example 11, (2-(2-amino-3-morpholinoquinolin-6-yl)phenyl)(tetrahydro-2H-pyran-4-yl)methanone], for which the pIC50 on BACE1 (setting [2]) is 6.30 to 7.00; in assay [1] (Homo sapiens, HEK293, 24 h), 5.30 to 6.00.

As to `Cc1cccc(/C(=N/O)c2ccccc2)c1-c1ccc2nc(N)c(N3CCOCC3)cc2c1` [Example 190, (E)-(2-(2-amino-3-morpholinoquinolin-6-yl)-3-methylphenyl)(phenyl)methanone oxime], the negative-log IC50 (pIC50) at BACE1 (setting [2]) is > 7.00; in assay [1] it was 6.30 to 7.00.

For the molecule `Cc1cccc(-n2cc(Cl)c(C)n2)c1-c1ccc2nc(N)c(N3CCOCC3)cc2c1` [Example 34, 6-(2-(4-chloro-3-methyl-1H-pyrazol-1-yl)-6-methylphenyl)-3-morpholinoquinolin-2-amine], the pIC50 at BACE1 (setting [2]) is > 7.00; in assay [1] (Homo sapiens, HEK293, 24 h), 5.30 to 6.00.

In the case of `COc1ccccc1C(=O)c1cccc(C)c1-c1ccc2nc(N)c(N3CCOCC3)cc2c1` [Example 7, (2-(2-amino-3-morpholinoquinolin-6-yl)-3-methylphenyl)(2-methoxyphenyl)methanone], the negative logarithm of the IC50 (pIC50) at BACE1 (setting [2]) is > 7.00; in assay [1] (Homo sapiens, HEK293, 24 h), 6.30 to 7.00.

As to `COc1ccccc1C(N)c1cccc(C)c1-c1ccc2nc(N)c(N3CCOCC3)cc2c1` (centres unmarked) [Example 195, 6-(2-(amino(2-methoxyphenyl)methyl)-6-methylphenyl)-3-morpholinoquinolin-2-amine], the negative logarithm of the IC50 (pIC50) is > 7.00 on BACE1 (setting [2]) and > 7.00 in assay [1] (Homo sapiens, HEK293, 24 h).

Regarding `CC(C)(C)COc1ccccc1-c1ccc2nc(N)c(N3CCOCC3)cc2c1` [Example 51, 3-morpholino-6-(2-(neopentyloxy)phenyl)quinolin-2-amine], the negative-log IC50 (pIC50) at BACE1 (setting [2]) is 6.00 to 6.30; in assay [1] (Homo sapiens, HEK293, 24 h) it was < 5.30.

`Cc1cccc(C(=O)N2CC=CC2)c1-c1ccc2nc(N)c(N3CCOCC3)cc2c1` [Example 90, (2-(2-amino-3-morpholinoquinolin-6-yl)-3-methylphenyl)(2,5-dihydro-1H-pyrrol-1-yl)methanone]: the pIC50 is > 7.00 on BACE1 (setting [2]) and 6.00 to 6.30 in assay [1] (Homo sapiens, HEK293, 24 h).

On to “2-(2-amino-3-(2,6-dimethylmorpholino)quinolin-6-yl)-N-ethyl-3-methyl-N-propylbenzamide [Example 216]”, for which the pIC50 is > 7.00 at BACE1 (setting [2]) and 5.30 to 6.00 in assay [1].

On to `Nc1nc2ccc(-c3ccccc3Cl)cc2cc1N1CCOCC1` [Example 219, 6-(2-chlorophenyl)-3-morpholinoquinolin-2-amine], for which the pIC50 on BACE1 (setting [2]) was 6.00 to 6.30; in assay [1] (Homo sapiens, HEK293, 24 h), < 5.30.

As to `Cc1cccc(C(=O)N2C(C)C=CC2C)c1-c1ccc2nc(N)c(N3CCOCC3)cc2c1` (centres unmarked) [Example 125, (2-(2-amino-3-morpholinoquinolin-6-yl)-3-methylphenyl)(2,5-dimethyl-2,5-dihydro-1H-pyrrol-1-yl)methanone], the negative-log IC50 (pIC50) on BACE1 (setting [2]) is > 7.00; in assay [1] (Homo sapiens, HEK293, 24 h) it was 6.00 to 6.30.

For `Cc1cccc(C(=O)N(C)c2ccc(F)cc2)c1-c1ccc2nc(N)c(N3CCOCC3)cc2c1` [Example 138, 2-(2-amino-3-morpholinoquinolin-6-yl)-N-(4-fluorophenyl)-N,3-dimethylbenzamide], the negative logarithm of the IC50 (pIC50) on BACE1 (setting [2]) is 6.30 to 7.00; in assay [1] (Homo sapiens, HEK293, 24 h), 5.30 to 6.00.

Consider `Cc1coc(-c2cccc(C)c2-c2ccc3nc(N)c(N4CCOCC4)cc3c2)n1` [Example 31, 6-(2-methyl-6-(4-methyloxazol-2-yl)phenyl)-3-morpholinoquinolin-2-amine], for which the negative logarithm of the IC50 (pIC50) at BACE1 (setting [2]) is 6.30 to 7.00; in assay [1] (Homo sapiens, HEK293, 24 h), < 5.30.

As for `Cc1cccc(C(=O)C2CCCCC2)c1-c1ccc2nc(N)c(N3CCOCC3)cc2c1` [Example 181, (2-(2-amino-3-morpholinoquinolin-6-yl)-3-methylphenyl)(cyclohexyl)methanone], the negative logarithm of the IC50 (pIC50) at BACE1 (setting [2]) was > 7.00; in assay [1] (Homo sapiens, HEK293, 24 h) it was 5.30 to 6.00.

Turning to `Nc1nc2ccc(-c3ccccc3OCc3ccccc3)cc2cc1N1CCOCC1` [Example 53, 6-(2-(benzyloxy)phenyl)-3-morpholinoquinolin-2-amine], the pIC50 at BACE1 (setting [2]) is 6.30 to 7.00; in assay [1] (Homo sapiens, HEK293, 24 h), < 5.30.

In the case of `CCN(C)C(=O)c1cccc(C)c1-c1ccc2nc(N)c(N3CCOCC3)cc2c1` [Example 121, 2-(2-amino-3-morpholinoquinolin-6-yl)-N-ethyl-N,3-dimethylbenzamide], the negative logarithm of the IC50 (pIC50) at BACE1 (setting [2]) is 6.30 to 7.00; in assay [1] (Homo sapiens, HEK293, 24 h), 5.30 to 6.00.

With `CCN(CC)C(=O)c1cccc(C)c1-c1ccc2nc(N)c(N3CCOCC3)cc2c1` [Example 102, 2-(2-amino-3-morpholinoquinolin-6-yl)-N,N-diethyl-3-methylbenzamide], the negative logarithm of the IC50 (pIC50) on BACE1 (setting [2]) is 6.30 to 7.00; in assay [1] (Homo sapiens, HEK293, 24 h) it was 5.30 to 6.00.

In the case of `Cc1cc(F)cc(C(=O)N2CC[C@@H](F)C2)c1-c1ccc2nc(N)c(N3CCOCC3)cc2c1` [Example 130, (R)-(2-(2-amino-3-morpholinoquinolin-6-yl)-5-fluoro-3-methylphenyl)(3-fluoropyrrolidin-1-yl)methanone], the negative logarithm of the IC50 (pIC50) on BACE1 (setting [2]) was > 7.00; in assay [1] (Homo sapiens, HEK293, 24 h), 6.30 to 7.00.

As for `Cc1cccc(C(=O)N2CCCC2)c1-c1ccc2nc(N)c(C3CCCCO3)cc2c1` (centres unmarked) [Example 29, (2-(2-amino-3-(tetrahydro-2H-pyran-2-yl)quinolin-6-yl)-3-methylphenyl)(pyrrolidin-1-yl)methanone], the negative-log IC50 (pIC50) at BACE1 (setting [2]) is 6.30 to 7.00; in assay [1] (Homo sapiens, HEK293, 24 h), 5.30 to 6.00.

As to `Cc1cccc(-c2nnc3ccccn23)c1-c1ccc2nc(N)c(N3CCOCC3)cc2c1` [Example 22, 6-(2-([1,2,4]triazolo[4,3-a]pyridin-3-yl)-6-methylphenyl)-3-morpholinoquinolin-2-amine], the pIC50 was 6.30 to 7.00 at BACE1 (setting [2]) and 6.00 to 6.30 in assay [1] (Homo sapiens, HEK293, 24 h).

As for `COCCN(C)C(=O)c1cccc(C)c1-c1ccc2nc(N)c(N3CCOCC3)cc2c1` [Example 71, 2-(2-amino-3-morpholinoquinolin-6-yl)-N-(2-methoxyethyl)-N,3-dimethylbenzamide], the pIC50 was 6.30 to 7.00 on BACE1 (setting [2]) and 5.30 to 6.00 in assay [1] (Homo sapiens, HEK293, 24 h).

Regarding `Nc1nc2ccc(-c3c(C(=O)N4CCCC4)cccc3C(F)(F)F)cc2cc1N1CCOCC1` [Example 155, (2-(2-amino-3-morpholinoquinolin-6-yl)-3-(trifluoromethyl)phenyl)(pyrrolidin-1-yl)methanone], the pIC50 at BACE1 (setting [2]) was 6.30 to 7.00; in assay [1] (Homo sapiens, HEK293, 24 h), 5.30 to 6.00.

As to `CCCC(C)N(C)C(=O)c1cccc(C)c1-c1ccc2nc(N)c(N3CCOCC3)cc2c1` (centres unmarked) [Example 120, 2-(2-amino-3-morpholinoquinolin-6-yl)-N,3-dimethyl-N-(pentan-2-yl)benzamide], the pIC50 was > 7.00 at BACE1 (setting [2]) and 5.30 to 6.00 in assay [1] (Homo sapiens, HEK293, 24 h).

Consider `CSC1=NCCN1C(=O)c1cccc(C)c1-c1ccc2nc(N)c(N3CCOCC3)cc2c1` [Example 114, (2-(2-amino-3-morpholinoquinolin-6-yl)-3-methylphenyl)(2-(methylthio)-4,5-dihydro-1H-imidazol-1-yl)methanone], for which the pIC50 at BACE1 (read-out: BACE1 FRET assay (IC50, numeric)) was 5.94; in assay [1] (Homo sapiens, HEK293, 24 h), < 5.30.
